# From patent US20210181179A1, “DIAGNOSIS AND TREATMENT OF IMMUNOTHERAPY-INDUCED NEUROTOXICITY” (MEMORIAL SLOAN KETTERING CANCER CENTER, priority 2018, published 2021)
# Legend:
# CCF-STTG1 (astrocytoma) = experiment: Net production of TRP metabolites in media samples, CCF-STTG1; assay type: cell-based, human
# Excerpt: (§1) Under physiological conditions in the brain, kynurenine metabolism is driven by microglial cells and astrocytes with preferential production of QUIN and KA respectively. […] This may have been due to T cells producing cytokines and/or intermediate metabolites that are further metabolized to QUIN by the cells. In order to identify specific factors that may lead to tryptophan-kynurenine pathway up-regulation for QUIN production, we tested a panel of cytokine and chemokines implicated in NTX and CRS. […] We initially evaluated the panel of the select factors individually (FIGS. 16 A-B). We selected several cytokines based on their effect on rate-limiting enzymes for QUIN production. These included IFNγ, TNF, […], CXCL10 and […]. These enzymes were selected based on their regulation of key enzymes, KMO and KYNU, which may lead to supraphysiological accumulation of QUIN. These factors were further evaluated, individually or in combination, on astrocytoma, microglial, and primary monocyte-derived macrophages for mRNA levels of kynurenine pathway enzymes and kynurenine metabolites production (FIG. 17).
# DOAY (medulloblastoma) = experiment: Net production of TRP metabolites in media samples, DOAY; assay type: cell-based
# HCN2 (cortical neuron) = experiment: Net production of TRP metabolites in media samples, HCN2; assay type: cell-based
# HMC3 (microglia) = experiment: Net production of TRP metabolites in media samples, HMC3; assay type: cell-based, human
# Excerpt: as §1
# THP-1 (monocyte) = experiment: Net production of TRP metabolites in media samples, THP-1; assay type: cell-based
# ALL3.1 (B-ALL) = experiment: Net production of TRP metabolites in media samples, ALL3.1; assay type: cell-based
# BV173 (B-ALL) = experiment: Net production of TRP metabolites in media samples, BV173; assay type: cell-based
# CCRF-SB (B-ALL) = experiment: Net production of TRP metabolites in media samples, CCRF-SB; assay type: cell-based
# KARPAS231 (B-ALL) = experiment: Net production of TRP metabolites in media samples, KARPAS231; assay type: cell-based
# RS4; 11 (B-ALL) = experiment: Net production of TRP metabolites in media samples, RS4; 11; assay type: cell-based
# SUP-B15 (B-ALL) = experiment: Net production of TRP metabolites in media samples, SUP-B15; assay type: cell-based
substance,measurement,setting,value
TNFα,Net production of TRP metabolites in media samples: 3-HK,CCF-STTG1 (astrocytoma),−9.8 ± 2.6
same,Net production of TRP metabolites in media samples: HAA,CCF-STTG1 (astrocytoma),10.74 ± 0.9
same,Net production of TRP metabolites in media samples: KA,CCF-STTG1 (astrocytoma),1.36 ± 0.5
same,Net production of TRP metabolites in media samples: KYN,CCF-STTG1 (astrocytoma),2853.38 ± 129.6
same,Net production of TRP metabolites in media samples: QUIN,CCF-STTG1 (astrocytoma),12.92 ± 4
same,Net production of TRP metabolites in media samples: 3-HK,DOAY (medulloblastoma),−8.84 ± 1.2
same,Net production of TRP metabolites in media samples: HAA,DOAY (medulloblastoma),10.14 ± 0.8
same,Net production of TRP metabolites in media samples: KA,DOAY (medulloblastoma),4.52 ± 0.7
same,Net production of TRP metabolites in media samples: KYN,DOAY (medulloblastoma),35.94 ± 12.9
same,Net production of TRP metabolites in media samples: QUIN,DOAY (medulloblastoma),19.86 ± 7.1
same,Net production of TRP metabolites in media samples: 3-HK,HCN2 (cortical neuron),4.82 ± 1.9
same,Net production of TRP metabolites in media samples: HAA,HCN2 (cortical neuron),4.52 ± 0.3
same,Net production of TRP metabolites in media samples: KA,HCN2 (cortical neuron),1.56 ± 1.5
same,Net production of TRP metabolites in media samples: KYN,HCN2 (cortical neuron),5.4 ± 10
same,Net production of TRP metabolites in media samples: QUIN,HCN2 (cortical neuron),8.44 ± 12.2
same,Net production of TRP metabolites in media samples: 3-HK,HMC3 (microglia),7.44 ± 18
same,Net production of TRP metabolites in media samples: HAA,HMC3 (microglia),−2.14 ± 0.45
same,Net production of TRP metabolites in media samples: KA,HMC3 (microglia),3.38 ± 2.9
same,Net production of TRP metabolites in media samples: KYN,HMC3 (microglia),506.02 ± 251^
same,Net production of TRP metabolites in media samples: QUIN,HMC3 (microglia),52.84 ± 27.6
same,Net production of TRP metabolites in media samples: 3-HK,THP-1 (monocyte),0.82 ± 1.5
same,Net production of TRP metabolites in media samples: KA,THP-1 (monocyte),−9.9 ± 5
same,Net production of TRP metabolites in media samples: KYN,THP-1 (monocyte),298.62 ± 61.8
same,Net production of TRP metabolites in media samples: QUIN,THP-1 (monocyte),16.24 ± 51.4
same,Net production of TRP metabolites in media samples: 3-HK,ALL3.1 (B-ALL),6.26 ± 7.3
same,Net production of TRP metabolites in media samples: KA,ALL3.1 (B-ALL),−4.56 ± 5.5
same,Net production of TRP metabolites in media samples: KYN,ALL3.1 (B-ALL),76.98 ± 139.6
same,Net production of TRP metabolites in media samples: QUIN,ALL3.1 (B-ALL),−13.1 ± 32.3
same,Net production of TRP metabolites in media samples: 3-HK,BV173 (B-ALL),10.36 ± 9.9
same,Net production of TRP metabolites in media samples: KA,BV173 (B-ALL),−3.16 ± 2.1
same,Net production of TRP metabolites in media samples: KYN,BV173 (B-ALL),216.84 ± 141.1 ™
same,Net production of TRP metabolites in media samples: QUIN,BV173 (B-ALL),−8.44 ± 48.4
same,Net production of TRP metabolites in media samples: 3-HK,CCRF-SB (B-ALL),28.96 ± 22.5
same,Net production of TRP metabolites in media samples: HAA,CCRF-SB (B-ALL),11.34 ± 3.9
same,Net production of TRP metabolites in media samples: KA,CCRF-SB (B-ALL),−9.3 ± 4.7
same,Net production of TRP metabolites in media samples: KYN,CCRF-SB (B-ALL),361.62 ± 256.4
same,Net production of TRP metabolites in media samples: QUIN,CCRF-SB (B-ALL),−70.3 ± 30.4
same,Net production of TRP metabolites in media samples: 3-HK,KARPAS231 (B-ALL),4.94 ± 3.4
same,Net production of TRP metabolites in media samples: HAA,KARPAS231 (B-ALL),14.18 ± 4.6
same,Net production of TRP metabolites in media samples: KA,KARPAS231 (B-ALL),−7.72 ± 36.9
same,Net production of TRP metabolites in media samples: KYN,KARPAS231 (B-ALL),−72.84 ± 36.9
same,Net production of TRP metabolites in media samples: QUIN,KARPAS231 (B-ALL),−44.96 ± 36.3
same,Net production of TRP metabolites in media samples: 3-HK,RS4; 11 (B-ALL),−0.34 ± 1.9
same,Net production of TRP metabolites in media samples: KA,RS4; 11 (B-ALL),−5.46 ± 5.7
same,Net production of TRP metabolites in media samples: KYN,RS4; 11 (B-ALL),4.38 ± 25.2
same,Net production of TRP metabolites in media samples: QUIN,RS4; 11 (B-ALL),42.26 ± 39^
same,Net production of TRP metabolites in media samples: 3-HK,SUP-B15 (B-ALL),17.56 ± 14^
same,Net production of TRP metabolites in media samples: HAA,SUP-B15 (B-ALL),6.58 ± 0.8
same,Net production of TRP metabolites in media samples: KA,SUP-B15 (B-ALL),−9.16 ± 3^
same,Net production of TRP metabolites in media samples: KYN,SUP-B15 (B-ALL),303.8 ± 191
same,Net production of TRP metabolites in media samples: QUIN,SUP-B15 (B-ALL),−67.3 ± 23^
